Measured values reported in publication PMC9118179, “Ginkgolic acid and anacardic acid are reversible inhibitors of SARS-CoV-2 3-chymotrypsin-like protease” (Cell & Bioscience, 2022).

Experiments:
[1] = molecular target: T1, SARS-CoV-2 3CL^pro (Severe acute respiratory syndrome coronavirus 2, UniProt P0DTD1); assay: FRET protease assay; assay type: biochemical
T1 construct: gene rep

[2] = molecular target: T1, SARS-CoV-2 3CL^pro; assay: FRET protease assay, Lineweaver-Burk secondary plot; assay type: biochemical

Compound: CCCCCCCCCCCCCCCc1cccc(O)c1C(=O)O [AA, anacardic acid]
- IC50 [1]: 7.6 ± 0.3 µM
- Ki [2]: 1.87 µM
